From paper PMC8228075, “In Vitro and In Silico Characterization of G-Protein Coupled Receptor (GPCR) Targets of Phlorofucofuroeckol-A and Dieckol” (Marine Drugs, 2021)
pEC50, pIC50: −log10 of the molar value. Values belong to the molecule of their own block, whether it stands above or below them.

How the values were obtained:
Assay type in all cases: cell-based
[1] = biological target: T1, Cannabinoid receptor 1 (CB1R) (Homo sapiens, UniProt P21554); assay: hCB1R functional antagonist assay (cAMP, HTRF, CHO cells); settings: reference antagonist; read-out: Reference Drugs, IC50
T1 construct: host or cells: CHO cells
Procedure: (§1) The in-house assay protocol and experimental conditions are reported in our previous reports. The functional effect of dieckol and PFF-A was characterized based on their modulation effect on cytosolic Ca^2+ ion mobilization using a fluorimetric detection method or by measuring their effect on cAMP modulation using homogeneous time-resolved fluorescence (HTRF) detection.
(§2) Functional activity of phlorotannins over hA2AR, hα2CAR, hCB1R, GLP-1R, and h5-HT1BR was determined by measuring their effects on cAMP production by the HTRF detection method using transected cells expressing human cloned receptors.
The transfected CHO cells were suspended in HBSS buffer (Invitrogen) complemented with 20 mM HEPES (pH 7.4). […] After 30 min of incubation at 37 °C, the cells were lysed and the fluorescence acceptor (D2-labeled cAMP) and fluorescence donor (anti-cAMP antibody labeled with europium cryptate) were added.

h5-HT1BR = h5-HT1BR (Homo sapiens, UniProt P28222); assay: h5-HT1BR functional antagonist assay (cAMP, HTRF, Hela cells)
Procedure: as §1, §2
Concisely, a plasmid containing the GPCR gene of interest (5-HT1B) was transfected into Hela cells. The resulting stable transfectants were suspended in HBSS buffer (Invitrogen, Carlsbad, CA, USA) containing 20 mM HEPES (pH 7.4), […], 1 mg/mL glucose, and 500 μM IBMX and distributed in microplates at a density of 2 × 10^4 cells/well. […] Then, the cells were lysed and a fluorescence acceptor (D2-labeled cAMP) and fluorescence donor (anti-cAMP antibody with europium cryptate) were added following 60 min incubation at RT.

[2] = biological target: T2, Alpha-2A adrenergic receptor (hα2AAR) (Homo sapiens, UniProt P08913); assay: hα2AAR functional antagonist assay (Ca2+ mobilization, rat basophil leukemia cells); settings: reference antagonist; read-out: Reference Drugs, IC50
T2 construct: host or cells: rat basophil leukemia cells
T2 sequence (P08913 1-465): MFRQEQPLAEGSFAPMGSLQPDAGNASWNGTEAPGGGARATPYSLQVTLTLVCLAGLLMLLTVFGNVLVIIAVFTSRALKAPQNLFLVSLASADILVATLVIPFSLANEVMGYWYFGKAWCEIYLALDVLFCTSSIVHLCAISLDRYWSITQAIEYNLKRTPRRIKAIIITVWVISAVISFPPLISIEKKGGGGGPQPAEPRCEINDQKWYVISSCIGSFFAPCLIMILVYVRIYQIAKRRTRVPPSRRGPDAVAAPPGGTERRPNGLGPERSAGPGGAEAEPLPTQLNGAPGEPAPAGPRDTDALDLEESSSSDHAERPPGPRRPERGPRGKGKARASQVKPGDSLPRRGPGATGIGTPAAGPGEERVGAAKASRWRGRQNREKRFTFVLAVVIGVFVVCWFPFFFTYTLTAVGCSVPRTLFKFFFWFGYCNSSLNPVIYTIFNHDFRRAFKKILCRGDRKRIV
From the text: as §1
The rat basophil leukemia cells were distributed in microplates at a density of 1.1 × 10^4 cells/well after suspending in a HBSS buffer (Invitrogen) containing 20 mM HEPES. Then, the fluorescent probe (Fluo8, AAT Bioquest) mixed with probenecid in HBSS buffer (Invitrogen) complemented with 20 mM Hepes (Millipore) (pH 7.4) was added into each well incubated for 60 min at 30 °C. Thereafter, the assay plates were positioned in a microplate reader (FlipR Tetra, Molecular Device) and we added test compounds, reference agonist/antagonist or HBSS buffer (basal control). Change in fluorescence intensity which varies proportionally to the free cytosolic Ca^2+ ion concentration was measured.

[3] = biological target: T3, Free fatty acid receptor 1 (FFA1R) (GPR40) (Homo sapiens, UniProt O14842); assay: FFA1R/GPR40 functional agonist assay (Ca2+ mobilization, HEK-293 cells); settings: reference agonist; read-out: Reference Drugs, EC50
T3 construct: host or cells: HEK-293 cells
Procedure: The in-house assay protocol and experimental conditions are reported in our previous reports. […] Then, the mixture of fluorescent probe (Fluo4 Direct, Invitrogen) and probenecid in HBSS buffer (Invitrogen) complemented with 20 mM Hepes (Invitrogen) (pH 7.4) was added into each well and incubated for 60 min at 37 °C, followed by 15 min incubation at 22 °C. Thereafter, the assay plates were positioned in a CellLux microplate reader (PerkinElmer, Waltham, MA, USA) which was used for the addition of the following: For agonist assay-test compound, reference agonist, or HBSS buffer (basal control). Linoleic acid at 100 μM was added in separate assay wells for stimulated control measurement.

Chain of h5-HT1BR (P28222 whole entry): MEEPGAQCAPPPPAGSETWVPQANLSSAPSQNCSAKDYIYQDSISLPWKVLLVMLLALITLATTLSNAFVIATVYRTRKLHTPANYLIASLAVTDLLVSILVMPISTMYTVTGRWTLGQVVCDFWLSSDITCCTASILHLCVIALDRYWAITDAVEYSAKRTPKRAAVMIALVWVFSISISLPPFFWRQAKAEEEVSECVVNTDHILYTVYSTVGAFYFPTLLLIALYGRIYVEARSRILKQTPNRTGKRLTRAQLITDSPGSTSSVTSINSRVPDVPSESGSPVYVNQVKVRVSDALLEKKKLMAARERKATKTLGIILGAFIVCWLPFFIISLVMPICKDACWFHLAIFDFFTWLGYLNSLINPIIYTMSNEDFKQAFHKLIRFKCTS
T1 sequence (P21554 whole entry): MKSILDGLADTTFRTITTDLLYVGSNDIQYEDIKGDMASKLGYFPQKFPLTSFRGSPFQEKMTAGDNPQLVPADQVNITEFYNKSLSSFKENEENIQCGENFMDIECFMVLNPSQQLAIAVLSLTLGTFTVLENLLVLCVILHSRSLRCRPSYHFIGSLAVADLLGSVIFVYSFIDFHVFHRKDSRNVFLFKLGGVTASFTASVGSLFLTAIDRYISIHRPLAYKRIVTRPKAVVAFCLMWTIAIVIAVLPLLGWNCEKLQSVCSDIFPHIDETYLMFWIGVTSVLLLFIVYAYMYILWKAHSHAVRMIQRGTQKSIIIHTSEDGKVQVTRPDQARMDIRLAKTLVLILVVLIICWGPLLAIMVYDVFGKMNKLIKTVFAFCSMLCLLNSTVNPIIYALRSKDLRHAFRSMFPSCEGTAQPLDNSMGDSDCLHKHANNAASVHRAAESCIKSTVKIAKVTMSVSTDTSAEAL
T3 sequence (O14842 whole entry): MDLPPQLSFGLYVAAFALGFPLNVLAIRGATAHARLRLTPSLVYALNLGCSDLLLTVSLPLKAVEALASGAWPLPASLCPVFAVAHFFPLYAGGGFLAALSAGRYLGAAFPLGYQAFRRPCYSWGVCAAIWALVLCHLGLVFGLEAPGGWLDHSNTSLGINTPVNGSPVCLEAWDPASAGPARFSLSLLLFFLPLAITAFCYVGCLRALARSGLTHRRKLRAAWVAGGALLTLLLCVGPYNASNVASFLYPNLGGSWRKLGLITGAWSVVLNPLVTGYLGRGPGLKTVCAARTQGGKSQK

Compound: Cc1c(C(=O)NN2CCOCC2)nn(-c2ccc(Cl)cc2Cl)c1-c1ccc(I)cc1 [AM 281, reference compound]
- pIC50 [1]: 7.11

- pIC50 (h5-HT1BR): 7.64
Compound: CN(C)CCCc1cc(C(=O)Nc2ccc(-c3ccncc3)cc2)ccc1O [GR55562, reference compound]

Compound: COC1(C2=NCCN2)COc2ccccc2O1 (stereo not shown) [RX-821002, reference compound]
- pIC50 [2]: 7.77

- pEC50 [3]: 5.00
Compound: CCCCC/C=C\C/C=C\CCCCCCCC(=O)O [linoleic acid, reference compound]
